# Data as given in the NIST ThermoML archive (doi:10.1021/je200883w).
# Numbers after ± are expanded uncertainties.
# Conditions: 101.33 kPa, Liquid; for viscosity: Concentric cylinders viscometry; for mass density: Vibrating tube method
smiles,measurement,setting,value
CCCCn1cc[n+](C)c1C.O=S(=O)([N-]S(=O)(=O)C(F)(F)F)C(F)(F)F,viscosity,273.15 K,518.55 ± 20 mPa·s
same,mass density,273.15 K,1443.3 ± 2 kg/m3
same,viscosity,278.15 K,353.44 ± 13 mPa·s
same,mass density,278.15 K,1438.4 ± 2 kg/m3
same,viscosity,283.15 K,249.26 ± 8.2 mPa·s
same,mass density,283.15 K,1433.5 ± 2 kg/m3
same,viscosity,288.15 K,180.5 ± 5.5 mPa·s
same,mass density,288.15 K,1428.7 ± 2 kg/m3
same,viscosity,293.15 K,134.22 ± 3.8 mPa·s
same,mass density,293.15 K,1424 ± 2 kg/m3
same,viscosity,298.15 K,102.19 ± 2.7 mPa·s
same,mass density,298.15 K,1419.4 ± 1.9 kg/m3
same,viscosity,303.15 K,79.46 ± 2 mPa·s
same,mass density,303.15 K,1414.8 ± 1.9 kg/m3
same,viscosity,308.15 K,62.97 ± 1.5 mPa·s
same,mass density,308.15 K,1410.1 ± 1.9 kg/m3
same,viscosity,313.15 K,50.76 ± 1.2 mPa·s
same,mass density,313.15 K,1405.5 ± 1.9 kg/m3
same,viscosity,318.15 K,41.53 ± 0.99 mPa·s
same,mass density,318.15 K,1401 ± 1.9 kg/m3
same,viscosity,323.15 K,34.45 ± 0.82 mPa·s
same,mass density,323.15 K,1396.4 ± 1.9 kg/m3
same,viscosity,328.15 K,28.91 ± 0.68 mPa·s
same,mass density,328.15 K,1391.8 ± 1.9 kg/m3
same,viscosity,333.15 K,24.54 ± 0.58 mPa·s
same,mass density,333.15 K,1387.3 ± 1.9 kg/m3
same,viscosity,338.15 K,21.03 ± 0.49 mPa·s
same,mass density,338.15 K,1382.8 ± 1.9 kg/m3
same,viscosity,343.15 K,18.17 ± 0.42 mPa·s
same,mass density,343.15 K,1378.4 ± 1.9 kg/m3
same,viscosity,348.15 K,15.83 ± 0.37 mPa·s
same,mass density,348.15 K,1373.9 ± 1.9 kg/m3
same,viscosity,353.15 K,13.9 ± 0.32 mPa·s
same,mass density,353.15 K,1369.3 ± 1.8 kg/m3
same,viscosity,358.15 K,12.3 ± 0.28 mPa·s
same,mass density,358.15 K,1364.4 ± 1.8 kg/m3
same,viscosity,363.15 K,10.94 ± 0.25 mPa·s
same,mass density,363.15 K,1359.8 ± 1.8 kg/m3
same,viscosity,368.15 K,9.794 ± 0.23 mPa·s
same,mass density,368.15 K,1355.5 ± 1.8 kg/m3
same,viscosity,373.15 K,8.813 ± 0.2 mPa·s
same,mass density,373.15 K,1351.3 ± 1.8 kg/m3
